Experimental data published in article PMC5218480 (PLoS ONE, 2017).

Test system: MV-4-11 cells
Assay: Gene expression microarray analysis (Affymetrix PrimeView) and GSEA
Type: cell-based, human
Set-up: RFU PODN (11730768_x_at) / Fold change /veh PODN (11730768_x_at) / RFU LINC00158 (11744669_a_at) / Fold change /veh LINC00158 (11744669_a_at) / RFU DUSP10 (11751237_a_at) / Fold change /veh DUSP10 (11751237_a_at) / RFU ID3 (11757404_x_at) / Fold change /veh ID3 (11757404_x_at) / RFU PLEKHG5 (11737974_s_at) / Fold change /veh PLEKHG5 (11737974_s_at) / RFU LRRC4B (11730491_at) / Fold change /veh LRRC4B (11730491_at) / RFU GIMAP4 (11747438_a_at) / Fold change /veh GIMAP4 (11747438_a_at) / RFU KRT8 (11758183_x_at) / Fold change /veh KRT8 (11758183_x_at) / RFU CNN1 (11734310_a_at) / Fold change /veh CNN1 (11734310_a_at) / RFU VPS37D (11726825_at) / Fold change /veh VPS37D (11726825_at) / RFU C10orf10 (11716522_x_at) / Fold change /veh C10orf10 (11716522_x_at) / RFU KIR2DL2 /// KIR2DL4 /// KIR2DL5A /// KIR2DL5B /// KIR2DS1 /// KIR2DS2 /// KIR2DS3 /// KIR2DS4 /// KIR3DL3 /// KIR3DL3 /// KIR3DS1 (11738374_at) / Fold change /veh KIR2DL2 /// KIR2DL4 /// KIR2DL5A /// KIR2DL5B /// KIR2DS1 /// KIR2DS2 /// KIR2DS3 /// KIR2DS4 /// KIR3DL3 /// KIR3DL3 /// KIR3DS1 (11738374_at) / RFU C1QL1 (11718748_at) / Fold change /veh C1QL1 (11718748_at) / RFU TMPRSS4 (11747572_a_at) / Fold change /veh TMPRSS4 (11747572_a_at) / RFU HAMP (11756126_x_at) / Fold change /veh HAMP (11756126_x_at) / RFU RNFT2 (11725882_a_at) / Fold change /veh RNFT2 (11725882_a_at) / RFU NR4A2 (11747474_a_at) / Fold change /veh NR4A2 (11747474_a_at) / RFU ABCC12 (11746883_a_at) / Fold change /veh ABCC12 (11746883_a_at) / RFU TMEM136 (11760407_x_at) / Fold change /veh TMEM136 (11760407_x_at) / RFU CLDN22 /// WWC2 (11732394_at) / Fold change /veh CLDN22 /// WWC2 (11732394_at) / RFU HLA-DPB1 (11760878_x_at) / Fold change /veh HLA-DPB1 (11760878_x_at) / RFU SPINT1 (11716480_a_at) / Fold change /veh SPINT1 (11716480_a_at) / RFU GAP43 (11754022_s_at) / Fold change /veh GAP43 (11754022_s_at) / RFU A4GNT (11735810_at) / Fold change /veh A4GNT (11735810_at) / RFU PRB3 (11715151_x_at) / Fold change /veh PRB3 (11715151_x_at) / RFU TUBB4B (11761932_at) / Fold change /veh TUBB4B (11761932_at) / RFU CAPN14 (11732068_a_at) / Fold change /veh CAPN14 (11732068_a_at) / RFU TMCC2 (11721928_a_at) / Fold change /veh TMCC2 (11721928_a_at) / RFU IRGQ (11745062_a_at) / Fold change /veh IRGQ (11745062_a_at) / RFU FAM174B (11720279_a_at) / Fold change /veh FAM174B (11720279_a_at) / RFU TMPRSS4 (11748680_a_at) / Fold change /veh TMPRSS4 (11748680_a_at) / RFU FAM212B (11763350_a_at) / Fold change /veh FAM212B (11763350_a_at) / RFU PLEKHG5 (11743358_a_at) / Fold change /veh PLEKHG5 (11743358_a_at) / RFU ZSCAN30 (11745921_a_at) / Fold change /veh ZSCAN30 (11745921_a_at) / RFU CMKLR1 (11741424_a_at) / Fold change /veh CMKLR1 (11741424_a_at) / RFU LOC101060620 /// MAPK8IP1 (11723275_at) / Fold change /veh LOC101060620 /// MAPK8IP1 (11723275_at) / RFU SPTSSB (11747773_x_at) / Fold change /veh SPTSSB (11747773_x_at) / RFU PRSS12 (11739890_at) / Fold change /veh PRSS12 (11739890_at) / RFU BIN1 (11741810_x_at) / Fold change /veh BIN1 (11741810_x_at) / RFU WNT11 (11732464_a_at) / Fold change /veh WNT11 (11732464_a_at) / RFU C10orf10 (11716521_a_at) / Fold change /veh C10orf10 (11716521_a_at) / RFU C5orf56 (11738089_at) / Fold change /veh C5orf56 (11738089_at) / RFU CYB561 (11721691_x_at) / Fold change /veh CYB561 (11721691_x_at) / RFU ANKRD19P (11752326_a_at) / Fold change /veh ANKRD19P (11752326_a_at) / RFU OR2T12 /// OR2T33 /// OR2T8 (11738714_s_at) / Fold change /veh OR2T12 /// OR2T33 /// OR2T8 (11738714_s_at) / RFU VCAN (11748164_a_at) / Fold change /veh VCAN (11748164_a_at) / RFU JSRP1 (11732532_at) / Fold change /veh JSRP1 (11732532_at) / RFU KRTAP10-11 (11738290_x_at) / Fold change /veh KRTAP10-11 (11738290_x_at) / RFU MYO3A (11730013_a_at) / Fold change /veh MYO3A (11730013_a_at) / RFU EBF3 (11725865_a_at) / Fold change /veh EBF3 (11725865_a_at) / RFU CAMK2N1 (11719241_x_at) / Fold change /veh CAMK2N1 (11719241_x_at) / RFU C5orf56 (11738088_a_at) / Fold change /veh C5orf56 (11738088_a_at) / RFU OLFML3 (11715873_a_at) / Fold change /veh OLFML3 (11715873_a_at) / RFU LOC100653217 /// NTM (11731650_a_at) / Fold change /veh LOC100653217 /// NTM (11731650_a_at) / RFU MAPK11 (11762145_a_at) / Fold change /veh MAPK11 (11762145_a_at) / RFU FIZ1 (11724087_x_at) / Fold change /veh FIZ1 (11724087_x_at) / RFU OASL (11726364_x_at) / Fold change /veh OASL (11726364_x_at) / RFU SOX15 (11748057_x_at) / Fold change /veh SOX15 (11748057_x_at) / RFU CD79A (11719716_a_at) / Fold change /veh CD79A (11719716_a_at) / RFU HIST1H1D (11736915_at) / Fold change /veh HIST1H1D (11736915_at) / RFU CASKIN2 (11723855_a_at) / Fold change /veh CASKIN2 (11723855_a_at) / RFU LOC730098 (11760151_x_at) / Fold change /veh LOC730098 (11760151_x_at) / RFU OR4N2 (11742367_at) / Fold change /veh OR4N2 (11742367_at) / RFU PRRT2 (11749266_a_at) / Fold change /veh PRRT2 (11749266_a_at) / RFU SNX32 (11753110_a_at) / Fold change /veh SNX32 (11753110_a_at) / RFU CDHR5 (11726645_a_at) / Fold change /veh CDHR5 (11726645_a_at) / RFU RCAN1 (11760418_a_at) / Fold change /veh RCAN1 (11760418_a_at) / RFU FAM167A (11723789_a_at) / Fold change /veh FAM167A (11723789_a_at) / RFU FAM26E (11764081_at) / Fold change /veh FAM26E (11764081_at) / RFU ISYNA1 (11749810_s_at) / Fold change /veh ISYNA1 (11749810_s_at) / RFU ACY1 (11761880_at) / Fold change /veh ACY1 (11761880_at) / RFU 11764098_at / Fold change /veh 11764098_at / RFU SAMD14 (11745864_x_at) / Fold change /veh SAMD14 (11745864_x_at) / RFU NPB (11741838_a_at) / Fold change /veh NPB (11741838_a_at) / RFU TMPRSS6 (11731388_a_at) / Fold change /veh TMPRSS6 (11731388_a_at) / RFU KRTAP10-2 (11738614_at) / Fold change /veh KRTAP10-2 (11738614_at) / RFU ARHGAP8 /// PRR5-ARHGAP8 (11727945_x_at) / Fold change /veh ARHGAP8 /// PRR5-ARHGAP8 (11727945_x_at) / RFU KRTAP5-7 /// NADSYN1 (11734609_at) / Fold change /veh KRTAP5-7 /// NADSYN1 (11734609_at) / RFU RASL12 (11751679_a_at) / Fold change /veh RASL12 (11751679_a_at) / RFU CDKN2B (11736163_a_at) / Fold change /veh CDKN2B (11736163_a_at) / RFU PRF1 (11729649_at) / Fold change /veh PRF1 (11729649_at) / RFU, ZNF638 /// ZNF638-IT1 / Fold change vs veh, ZNF638 /// ZNF638-IT1 / RFU, PANK3 / Fold change vs veh, PANK3 / RFU, SH3YL1 / Fold change vs veh, SH3YL1 / RFU, ZEB2 / Fold change vs veh, ZEB2 / RFU, NRIP1 / Fold change vs veh, NRIP1 / RFU, PTTG1IP / Fold change vs veh, PTTG1IP / RFU, CAPN2 / Fold change vs veh, CAPN2 / RFU, MED14 / Fold change vs veh, MED14 / RFU, SNORA58 / Fold change vs veh, SNORA58 / RFU, C1orf63 / Fold change vs veh, C1orf63 / RFU, LRRFIP1 / Fold change vs veh, LRRFIP1 / RFU, NDUFAF7 / Fold change vs veh, NDUFAF7 / RFU, SLC12A2 / Fold change vs veh, SLC12A2 / RFU, IBTK / Fold change vs veh, IBTK / RFU, ESF1 / Fold change vs veh, ESF1 / Fold change vs veh, TMEM50B / RFU, TAOK1 / Fold change vs veh, TAOK1 / RFU, ACBD3 / Fold change vs veh, ACBD3 / RFU, TMA16 / Fold change vs veh, TMA16 / RFU, RWDD3 / Fold change vs veh, RWDD3 / RFU, BCAT1 / Fold change vs veh, BCAT1 / RFU, EDEM3 / Fold change vs veh, EDEM3 / RFU, TMEM33 / Fold change vs veh, TMEM33 / RFU, WDR75 / Fold change vs veh, WDR75 / RFU, AHCTF1 / Fold change vs veh, AHCTF1 / RFU, TFRC / Fold change vs veh, TFRC / RFU, ZDHHC17 / Fold change vs veh, ZDHHC17 / RFU, NOM1 / Fold change vs veh, NOM1 / RFU, ARL8B / Fold change vs veh, ARL8B / RFU, ZBTB11 / Fold change vs veh, ZBTB11 / RFU, TAMM41 / Fold change vs veh, TAMM41 / RFU, KIAA1704 /// LOC100996395 / Fold change vs veh, KIAA1704 /// LOC100996395 / RFU, ING1 / Fold change vs veh, ING1 / RFU, TRMT61B / Fold change vs veh, TRMT61B / RFU, FUBP3 / Fold change vs veh, FUBP3 / RFU, TP53 / Fold change vs veh, TP53 / RFU, TNKS2 / Fold change vs veh, TNKS2 / RFU, ZFP14 / Fold change vs veh, ZFP14 / RFU, ACTR2 / Fold change vs veh, ACTR2 / RFU, PPP3R1 / Fold change vs veh, PPP3R1 / RFU, PIK3R1 / Fold change vs veh, PIK3R1 / RFU, HNRNPA1 / Fold change vs veh, HNRNPA1 / RFU, RNF170 / Fold change vs veh, RNF170 / RFU, ZNF28 / Fold change vs veh, ZNF28 / RFU, RNGTT / Fold change vs veh, RNGTT / RFU, OGT / Fold change vs veh, OGT / RFU, BRD1 / Fold change vs veh, BRD1 / RFU, MARS / Fold change vs veh, MARS / RFU, ZNF655 / Fold change vs veh, ZNF655 / RFU, FAHD1 / Fold change vs veh, FAHD1 / RFU, BDP1 / Fold change vs veh, BDP1 / RFU, LRRCC1 / Fold change vs veh, LRRCC1 / RFU, ARID1A / Fold change vs veh, ARID1A / RFU, ZNF146 / Fold change vs veh, ZNF146 / RFU, ZNF330 / Fold change vs veh, ZNF330 / RFU, GPN3 / Fold change vs veh, GPN3 / RFU, C9orf123 / Fold change vs veh, C9orf123 / RFU, N4BP2L2 / Fold change vs veh, N4BP2L2 / RFU, ARFIP1 / Fold change vs veh, ARFIP1 / RFU, FAM179B / Fold change vs veh, FAM179B / RFU, BCL10 / Fold change vs veh, BCL10 / RFU, UHRF1BP1L / Fold change vs veh, UHRF1BP1L / RFU, BET1 / Fold change vs veh, BET1 / RFU, CNOT2 / Fold change vs veh, CNOT2 / RFU, ZNF268 / Fold change vs veh, ZNF268 / Fold change vs veh, ZNF507 / RFU, DGCR2 / Fold change vs veh, DGCR2 / RFU, WDSUB1 / Fold change vs veh, WDSUB1 / Fold change vs veh, HSP90B1 /// MIR3652 / RFU, ADSS / Fold change vs veh, ADSS / RFU, GK / Fold change vs veh, GK / RFU, ZNF148 / Fold change vs veh, ZNF148 / RFU, TAF9 / Fold change vs veh, TAF9 / RFU, SLC1A5 / Fold change vs veh, SLC1A5 / RFU, SLMO2 / Fold change vs veh, SLMO2 / RFU, ABCC4 / Fold change vs veh, ABCC4 / RFU, LOC101060439 /// RAP1B / Fold change vs veh, LOC101060439 /// RAP1B / RFU, RFX7 / Fold change vs veh, RFX7 / RFU, GTPBP10 / Fold change vs veh, GTPBP10 / RFU, CNEP1R1 / Fold change vs veh, CNEP1R1 / RFU, BIVM-ERCC5 /// ERCC5 / Fold change vs veh, BIVM-ERCC5 /// ERCC5 / RFU, ILF3 / Fold change vs veh, ILF3 / RFU 11762660_at / Fold change /veh 11762660_at / RFU VCAN (11757783_s_at) / Fold change /veh VCAN (11757783_s_at) / RFU DDX43 (11728927_at) / Fold change /veh DDX43 (11728927_at) / RFU KRT8 (11758188_x_at) / Fold change /veh KRT8 (11758188_x_at) / RFU NKD1 (11759106_at) / Fold change /veh NKD1 (11759106_at) / RFU SRD5A1 (11742802_a_at) / Fold change /veh SRD5A1 (11742802_a_at) / RFU TPSAB1 /// TPSB2 (11721975_s_at) / Fold change /veh TPSAB1 /// TPSB2 (11721975_s_at) / RFU GSTM3 (11746129_a_at) / Fold change /veh GSTM3 (11746129_a_at) / RFU IL23R (11737362_x_at) / Fold change /veh IL23R (11737362_x_at) / RFU TMEM51 (11727254_a_at) / Fold change /veh TMEM51 (11727254_a_at) / RFU PIWIL2 (11732686_x_at) / Fold change /veh PIWIL2 (11732686_x_at) / RFU ORM1 (11744905_x_at) / Fold change /veh ORM1 (11744905_x_at) / RFU CCDC152 (11743942_at) / Fold change /veh CCDC152 (11743942_at) / RFU ECM1 (11717891_a_at) / Fold change /veh ECM1 (11717891_a_at) / RFU IL23R (11748794_a_at) / Fold change /veh IL23R (11748794_a_at) / RFU TNFAIP8L3 (11732012_x_at) / Fold change /veh TNFAIP8L3 (11732012_x_at) / RFU MBOAT4 (11741988_at) / Fold change /veh MBOAT4 (11741988_at) / RFU 11764193_at / Fold change /veh 11764193_at / RFU TMEM53 (11763286_at) / Fold change /veh TMEM53 (11763286_at) / RFU MAGEB2 (11727129_at) / Fold change /veh MAGEB2 (11727129_at) / RFU TMEM200A (11744735_a_at) / Fold change /veh TMEM200A (11744735_a_at) / RFU CCDC152 (11751479_a_at) / Fold change /veh CCDC152 (11751479_a_at) / RFU FAM211A (11726209_a_at) / Fold change /veh FAM211A (11726209_a_at) / RFU RGS16 (11746705_a_at) / Fold change /veh RGS16 (11746705_a_at) / RFU VCAN (11755009_s_at) / Fold change /veh VCAN (11755009_s_at) / RFU RHOB (11743442_s_at) / Fold change /veh RHOB (11743442_s_at) / RFU RGS16 (11720943_a_at) / Fold change /veh RGS16 (11720943_a_at) / RFU RGS16 (11720944_at) / Fold change /veh RGS16 (11720944_at) / RFU, VPS4B / Fold change vs veh, VPS4B / RFU, CREB1 / Fold change vs veh, CREB1 / RFU, DNAJC13 / Fold change vs veh, DNAJC13 / RFU, GNAQ / Fold change vs veh, GNAQ / RFU, CDK5R1 / Fold change vs veh, CDK5R1 / RFU, ZRANB3 / Fold change vs veh, ZRANB3 / RFU, CUL4A / Fold change vs veh, CUL4A / RFU, CCNY / Fold change vs veh, CCNY / RFU, UFL1 / Fold change vs veh, UFL1 / RFU, COG3 / Fold change vs veh, COG3 / RFU, DIAPH2 / Fold change vs veh, DIAPH2 / RFU, SKA2 / Fold change vs veh, SKA2 / RFU, AFF3 / Fold change vs veh, AFF3 / RFU, LMF1 / Fold change vs veh, LMF1 / RFU, IPO11 / Fold change vs veh, IPO11 / RFU, DFFB / Fold change vs veh, DFFB / RFU, FOXP1 / Fold change vs veh, FOXP1 / RFU, CARD8 / Fold change vs veh, CARD8 / RFU, STRN3 / Fold change vs veh, STRN3 / RFU, ADK / Fold change vs veh, ADK / RFU, RASSF2 / Fold change vs veh, RASSF2 / RFU, WIPF1 / Fold change vs veh, WIPF1 / RFU, LARP1B / Fold change vs veh, LARP1B / RFU, RASA1 / Fold change vs veh, RASA1 / RFU, RB1 / Fold change vs veh, RB1 / RFU, PPFIA1 / Fold change vs veh, PPFIA1 / RFU, MAT2A / Fold change vs veh, MAT2A / RFU, CCT5 / Fold change vs veh, CCT5 / RFU, WDR92 / Fold change vs veh, WDR92 / RFU, CUX1 / Fold change vs veh, CUX1 / RFU, TTC7A / Fold change vs veh, TTC7A / RFU, TMEM135 / Fold change vs veh, TMEM135 / RFU, DEPTOR / Fold change vs veh, DEPTOR / RFU, CPM / Fold change vs veh, CPM / RFU, DNAJB6 / Fold change vs veh, DNAJB6 / RFU, CACNA2D3 / Fold change vs veh, CACNA2D3 / RFU, DTX4 / Fold change vs veh, DTX4 / RFU, TFCP2 / Fold change vs veh, TFCP2 / RFU, GMCL1 /// GMCL1P1 / Fold change vs veh, GMCL1 /// GMCL1P1 / RFU, AEBP2 / Fold change vs veh, AEBP2 / RFU, SNHG1 /// SNORD22 /// SNORD25 /// SNORD26 /// SNORD27 /// SNORD28 /// SNORD29 /// SNORD31 / Fold change vs veh, SNHG1 /// SNORD22 /// SNORD25 /// SNORD26 /// SNORD27 /// SNORD28 /// SNORD29 /// SNORD31 / Fold change (Aza/veh), C12orf56 (ProbeSet 11735607_a_at) / Fold change (ACY-1035/veh), C12orf56 (ProbeSet 11735607_a_at) / Fold change (Aza/veh), FGFR1OP (ProbeSet 11751329_s_at) / Fold change (ACY-1035/veh), FGFR1OP (ProbeSet 11751329_s_at) / Fold change (Aza/veh), VPS36 (ProbeSet 11739960_a_at) / Fold change (ACY-1035/veh), VPS36 (ProbeSet 11739960_a_at) / RFU SYPL1 (11715823_x_at) / Fold change /veh SYPL1 (11715823_x_at) / RFU IGFBP7 (11715501_s_at) / Fold change /veh IGFBP7 (11715501_s_at) / RFU REEP3 (11722064_at) / Fold change /veh REEP3 (11722064_at) / RFU IGLL1 (11728026_x_at) / Fold change /veh IGLL1 (11728026_x_at): dose or concentration left out as unconfirmed
Conditions: ProbeSet 11727545_at; LIST B

SMILES: Nc1ccc(-c2cccs2)cc1NC(=O)c1ccc2c(c1)cc(C1CC1)n2CCN1CCOCC1 [ACY-1035]
- Fold change vs veh, PANK3: 0.83
